Nine molecules from ChEMBL document CHEMBL1649107, “Sulfonate-containing thiiranes as selective gelatinase inhibitors” (ACS Med Chem Lett, 2011) can be followed below.

Data set [1] concerns the target T1, Matrilysin (Homo sapiens) (UniProt P09237).
T1 sequence (whole entry): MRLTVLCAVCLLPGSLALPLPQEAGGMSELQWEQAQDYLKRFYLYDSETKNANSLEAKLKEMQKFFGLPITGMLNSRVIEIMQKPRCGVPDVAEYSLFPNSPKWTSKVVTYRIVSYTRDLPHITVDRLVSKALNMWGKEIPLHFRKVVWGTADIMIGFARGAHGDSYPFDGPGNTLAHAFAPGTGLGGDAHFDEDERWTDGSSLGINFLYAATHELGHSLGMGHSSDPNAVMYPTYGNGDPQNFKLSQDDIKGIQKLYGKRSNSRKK
Briefly: Inhibition of human recombinant MMP7 catalytic domain assessed as dissociation rate constant by substrate hydrolysis based fluorescence spectrophotometry.

In data set [2] the target is T2, Matrix metalloproteinase-9 (Homo sapiens, UniProt P14780). Nature of the data set: Inhibition of human recombinant MMP9 catalytic domain assessed as dissociation rate constant by substrate hydrolysis based fluorescence spectrophotometry.
T2 sequence (P14780 whole entry, the tested form may be a part): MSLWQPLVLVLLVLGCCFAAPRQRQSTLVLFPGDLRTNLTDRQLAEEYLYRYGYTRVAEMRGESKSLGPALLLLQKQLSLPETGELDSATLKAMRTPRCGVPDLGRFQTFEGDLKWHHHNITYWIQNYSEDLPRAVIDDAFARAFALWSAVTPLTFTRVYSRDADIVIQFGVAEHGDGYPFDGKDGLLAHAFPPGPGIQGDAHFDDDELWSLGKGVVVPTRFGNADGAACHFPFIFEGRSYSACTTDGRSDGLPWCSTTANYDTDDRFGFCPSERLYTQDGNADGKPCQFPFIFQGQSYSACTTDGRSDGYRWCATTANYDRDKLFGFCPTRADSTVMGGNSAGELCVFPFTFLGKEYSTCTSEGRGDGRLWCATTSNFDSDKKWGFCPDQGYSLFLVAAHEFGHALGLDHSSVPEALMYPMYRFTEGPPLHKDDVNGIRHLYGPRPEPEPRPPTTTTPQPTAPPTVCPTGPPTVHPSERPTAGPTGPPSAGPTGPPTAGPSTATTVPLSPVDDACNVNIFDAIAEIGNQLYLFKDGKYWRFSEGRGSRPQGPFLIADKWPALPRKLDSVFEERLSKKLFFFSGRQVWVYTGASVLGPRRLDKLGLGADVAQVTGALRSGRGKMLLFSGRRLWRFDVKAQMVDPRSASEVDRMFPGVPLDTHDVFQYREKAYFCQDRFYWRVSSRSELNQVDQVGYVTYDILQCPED
For data set [3], the target named is T3, Matrix metalloproteinase-14 (Homo sapiens, UniProt P50281). Nature of the data set: Inhibition of human recombinant MMP14 catalytic domain assessed as dissociation rate constant by substrate hydrolysis based fluorescence spectrophotometry.
The target of data set [4] is T3, Matrix metalloproteinase-14. Nature of the data set: Inhibition of human recombinant MMP14 catalytic domain by substrate hydrolysis based fluorescence spectrophotometry.
In data set [5] the target is T4, Stromelysin-1 (Homo sapiens, UniProt P08254). Briefly: Inhibition of human recombinant MMP3 catalytic domain at 200 uM by substrate hydrolysis based fluorescence spectrophotometry.
Target sequence in this assay (P08254 100-477 limits assumed): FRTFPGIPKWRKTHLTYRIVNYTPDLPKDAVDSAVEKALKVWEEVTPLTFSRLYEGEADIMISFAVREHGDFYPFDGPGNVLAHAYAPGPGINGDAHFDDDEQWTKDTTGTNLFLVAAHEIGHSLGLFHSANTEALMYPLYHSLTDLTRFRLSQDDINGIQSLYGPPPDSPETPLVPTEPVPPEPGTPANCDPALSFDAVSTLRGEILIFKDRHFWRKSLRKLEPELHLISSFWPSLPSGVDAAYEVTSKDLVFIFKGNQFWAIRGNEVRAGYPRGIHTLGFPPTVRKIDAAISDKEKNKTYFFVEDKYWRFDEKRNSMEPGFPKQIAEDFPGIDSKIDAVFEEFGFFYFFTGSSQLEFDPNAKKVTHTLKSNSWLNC
The target in data set [6] is T5, Interstitial collagenase (Homo sapiens) (UniProt P03956).
T5 sequence (whole entry): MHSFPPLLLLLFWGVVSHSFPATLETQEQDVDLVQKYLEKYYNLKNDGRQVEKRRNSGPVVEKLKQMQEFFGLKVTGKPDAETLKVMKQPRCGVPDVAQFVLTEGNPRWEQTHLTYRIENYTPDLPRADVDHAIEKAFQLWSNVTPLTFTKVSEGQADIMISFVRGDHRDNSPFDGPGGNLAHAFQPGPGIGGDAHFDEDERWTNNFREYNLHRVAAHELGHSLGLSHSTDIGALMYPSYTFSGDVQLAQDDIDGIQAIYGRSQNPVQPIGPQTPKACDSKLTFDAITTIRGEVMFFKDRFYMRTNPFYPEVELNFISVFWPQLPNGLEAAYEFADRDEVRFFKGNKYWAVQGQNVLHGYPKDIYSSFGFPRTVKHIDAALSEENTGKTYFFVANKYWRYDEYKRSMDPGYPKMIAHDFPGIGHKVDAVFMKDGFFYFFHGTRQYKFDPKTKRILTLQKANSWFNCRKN
Nature of the data set: Inhibition of human recombinant MMP1 catalytic domain at 200 uM by substrate hydrolysis based fluorescence spectrophotometry.

Data set [7] is described as follows: Half life in rat liver microsomes at 200 uM by HPLC. The format is ADME, Microsome. For orientation: Microsomes from liver hold many membrane-bound enzymes, among them those of drug oxidation.
Data set [8] can be described thus: Intrinsic clearance in rat liver microsomes at 200 uM by HPLC. The format is ADME, Microsome.
Data set [9] concerns the target 72 kDa type IV collagenase (Homo sapiens, UniProt P08253).
Description: Inhibition of MMP2 by substrate hydrolysis based fluorescence spectrophotometry
For another data set, the target named is T6, Matrilysin (Homo sapiens, UniProt P09237).
T6 sequence (P09237 whole entry): T1 sequence (whole entry)

The target in data set [10] is T2, Matrix metalloproteinase-9.
Description: Inhibition of human recombinant MMP9 catalytic domain by substrate hydrolysis based fluorescence spectrophotometry
The nature of the next data set: physchem. The conditions noted are these: aqueous.
The target of another data set is T7, Interstitial collagenase (Homo sapiens, UniProt P03956).
T7 sequence (P03956 whole entry): T5 sequence (whole entry)

Data set [11] in a line: Half life in rat liver microsomes at 100 uM by HPLC. The format is ADME, Microsome.
Data set [12] can be described thus: Intrinsic clearance in rat liver microsomes at 100 uM by HPLC. The format is ADME, Microsome.
Data set [13] has as its target T4, Stromelysin-1.
Target sequence in this assay (P08254 whole entry, the tested form may be a part): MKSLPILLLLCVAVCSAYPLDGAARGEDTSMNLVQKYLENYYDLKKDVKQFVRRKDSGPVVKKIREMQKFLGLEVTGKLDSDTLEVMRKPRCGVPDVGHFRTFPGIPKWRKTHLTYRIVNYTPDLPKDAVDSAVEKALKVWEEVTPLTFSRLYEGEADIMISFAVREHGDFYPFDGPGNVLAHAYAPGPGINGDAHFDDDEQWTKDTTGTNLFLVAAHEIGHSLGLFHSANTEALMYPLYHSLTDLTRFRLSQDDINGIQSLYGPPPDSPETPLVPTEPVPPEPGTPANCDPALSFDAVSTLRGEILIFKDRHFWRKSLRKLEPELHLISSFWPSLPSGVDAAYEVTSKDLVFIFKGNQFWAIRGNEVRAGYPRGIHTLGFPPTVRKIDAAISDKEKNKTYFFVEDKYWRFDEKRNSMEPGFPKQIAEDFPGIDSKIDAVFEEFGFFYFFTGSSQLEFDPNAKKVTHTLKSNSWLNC
Description: Inhibition of human recombinant MMP3 catalytic domain by substrate hydrolysis based fluorescence spectrophotometry
Data set [14] addresses T5, Interstitial collagenase (Homo sapiens). Briefly: Inhibition of human recombinant MMP1 catalytic domain at 40 uM by substrate hydrolysis based fluorescence spectrophotometry.
Data set [15] deals with T4, Stromelysin-1. Briefly: Inhibition of human recombinant MMP3 catalytic domain at 20 uM by substrate hydrolysis based fluorescence spectrophotometry.
Target sequence in this assay (P08254 100-477 limits assumed): as the sequence (P08254 100-477 limits assumed) above
Data set [16] deals with T1, Matrilysin (Homo sapiens). Briefly: Inhibition of human recombinant MMP7 catalytic domain at 40 uM by substrate hydrolysis based fluorescence spectrophotometry.
For data set [17], the target named is T5, Interstitial collagenase (Homo sapiens). Nature of the data set: Inhibition of human recombinant MMP1 catalytic domain at 20 uM by substrate hydrolysis based fluorescence spectrophotometry.
Data set [18] has as its target T1, Matrilysin (Homo sapiens). Nature of the data set: Inhibition of human recombinant MMP7 catalytic domain at 20 uM by substrate hydrolysis based fluorescence spectrophotometry.
Data set [19] has as its target T5, Interstitial collagenase (Homo sapiens). Nature of the data set: Inhibition of human recombinant MMP1 catalytic domain at 30 uM by substrate hydrolysis based fluorescence spectrophotometry.
The target in data set [20] is T1, Matrilysin (Homo sapiens). Briefly: Inhibition of human recombinant MMP7 catalytic domain at 30 uM by substrate hydrolysis based fluorescence spectrophotometry.

SMILES strings stand for the structures. pKi: −log10 of the molar value. In brackets after ≈: the same amount, converted by molar mass. Activity calls are given as the source filed them. The rule behind the calls is not given here.

Chain of 72 kDa type IV collagenase (P08253 whole entry): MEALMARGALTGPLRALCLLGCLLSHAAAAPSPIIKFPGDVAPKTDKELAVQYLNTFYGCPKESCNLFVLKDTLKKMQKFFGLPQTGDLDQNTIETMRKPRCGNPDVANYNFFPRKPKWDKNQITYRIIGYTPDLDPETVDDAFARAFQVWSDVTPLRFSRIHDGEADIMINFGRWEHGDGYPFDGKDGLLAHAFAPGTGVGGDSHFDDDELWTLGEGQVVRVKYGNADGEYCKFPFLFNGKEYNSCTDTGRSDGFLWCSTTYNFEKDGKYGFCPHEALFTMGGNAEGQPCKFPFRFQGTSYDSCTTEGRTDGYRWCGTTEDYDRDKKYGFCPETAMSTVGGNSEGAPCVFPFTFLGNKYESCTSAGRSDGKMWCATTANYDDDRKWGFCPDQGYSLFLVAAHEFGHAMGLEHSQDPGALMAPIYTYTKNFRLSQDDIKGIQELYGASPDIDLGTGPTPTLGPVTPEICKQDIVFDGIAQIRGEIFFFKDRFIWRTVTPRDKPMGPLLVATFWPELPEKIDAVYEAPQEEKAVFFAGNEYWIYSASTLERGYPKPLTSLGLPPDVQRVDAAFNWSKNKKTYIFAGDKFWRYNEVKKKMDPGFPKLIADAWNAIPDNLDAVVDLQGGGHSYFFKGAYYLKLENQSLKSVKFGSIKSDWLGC
Description for physchem: Aqueous solubility of the compound

Regarding `CCCS(=O)(=O)Oc1ccc(S(=O)(=O)CC2CS2)cc1` (stereo not given), the Activity was found to be 0.8 ×10⁻³ /s in data set [1], 0.9 ×10⁻³ /s in [2] and 1.5 ×10⁻³ /s in data set [3]. The pKi is 4.49 in data set [4], 6.55 in data set [9], 4.46 on Matrilysin and 5.21 in data set [10]. Further, the inhibition on Stromelysin-1 [5] was 58%; in data set [6], 30%. The same molecule yielded a half-life at 200 µM in [7] of 29.8 min. The molecule further had an intrinsic metabolic clearance (CLint scaled) at 200 µM in data set [8] of 47.2 mL/min/kg. Also, the concentration in solution in “physchem” (solubility) was 96 µg/mL (≈ 285 µM).

Consider `CS(=O)(=O)Oc1ccc(S(=O)(=O)CC2CS2)cc1` (stereo not given), for which the Activity stood at 0.5 ×10⁻³ /s in [1], 0.25 ×10⁻³ /s in data set [2] and 0.2 ×10⁻³ /s in data set [3]. Besides, the pKi is 6.32 in data set [4]; 4.39 on Interstitial collagenase; 6.41 in [9]; 4.96 on Matrilysin; 5.41 in [10]. Further, the inhibition on Stromelysin-1 [5] came to 29%. Also, the half-life at 200 µM in [7] stood at 45.3 min. Besides, in [8], the CLint scaled at 200 µM is 31 mL/min/kg. Further, the concentration in solution in the data set “physchem” (solubility) came to 167 µg/mL (≈ 542 µM).

On to `CS(=O)(=O)Oc1ccc(Oc2ccc(S(=O)(=O)CC3CS3)cc2)cc1` (stereo not given), for which the Activity in data set [2] was found to be 0.1 ×10⁻³ /s. The half-life at 100 µM in data set [11] was 24.8 min. For the same molecule, the CLint scaled at 100 µM in data set [12] is 56.5 mL/min/kg. This molecule had a pKi on Stromelysin-1 [13] of 6.22. Also, in “physchem”, the solubility is 3.5 µg/mL (≈ 8.74 µM).

Take `CCS(=O)(=O)Oc1ccc(Oc2ccc(S(=O)(=O)CC3CS3)cc2)cc1` (stereo not given): the Activity in data set [2] was determined as 1.5 ×10⁻³ /s; in data set [3], 9 ×10⁻³ /s. In addition, the pKi is 6.44 in data set [4], 7.15 in data set [9] and 6.48 in data set [10]. In addition, the inhibition entry in data set [14] was “inactive”. For the same molecule, the inhibition on Stromelysin-1 [15] came out at 38%; in data set [16], 8%. Further, the half-life at 100 µM in data set [11] worked out at 35.9 min. The molecule further had a CLint scaled at 100 µM in data set [12] of 39 mL/min/kg. In “physchem”, the concentration in solution (solubility) was 4.1 µg/mL (≈ 9.89 µM).

With `CC(C)CS(=O)(=O)Oc1ccc(S(=O)(=O)CC2CS2)cc1` (stereo not given), the values for the Activity in [1], in data set [2] and in data set [3] were 1.4 ×10⁻³ /s, 1.9 ×10⁻³ /s and 1.7 ×10⁻³ /s, respectively. In addition, the pKi in data set [4] is 4.70; in [9], 6.62; at Matrilysin, 3.92; in data set [10] it was 5.46. Also, the inhibition on Stromelysin-1 [5] is 25%. The inhibition entry in data set [6] was “inactive”. The half-life at 200 µM in [7] is 36.1 min. Besides, in data set [8], the intrinsic metabolic clearance (CLint scaled) at 200 µM was 38.8 mL/min/kg. Besides, in the data set “physchem”, the solubility was found to be 230 µg/mL (≈ 656 µM).

Regarding `CCCS(=O)(=O)Oc1ccc(Oc2ccc(S(=O)(=O)CC3CS3)cc2)cc1` (stereo not given), the Activity in data set [2] is 1.6 ×10⁻³ /s; in data set [3], 1.8 ×10⁻³ /s. The pKi in data set [4] is 6.62; in data set [9], 7.47; in data set [10], 6.28. In addition, the inhibition stood at 22% at Stromelysin-1 [15] and 5% in data set [18]. Besides, in data set [17], the inhibition entry was “inactive”. Also, in [11], the half-life at 100 µM was found to be 12.6 min. Also, the intrinsic metabolic clearance (CLint scaled) at 100 µM in data set [12] was 111 mL/min/kg. This molecule gave a solubility in the data set “physchem” of 4 µg/mL (≈ 9.33 µM).

As for `CC(C)CS(=O)(=O)Oc1ccc(Oc2ccc(S(=O)(=O)CC3CS3)cc2)cc1` (stereo not given), the Activity in data set [2] and in data set [3] was 2 ×10⁻³ /s in each case. The pKi in [4] was 6.10; in data set [9], 7.21; in [10], 6.42. Also, the inhibition at Stromelysin-1 [15] is 5%. Besides, the inhibition result in [19] and in data set [20] was “inactive” throughout. In data set [11], the half-life at 100 µM was found to be 16.2 min. In data set [12], this molecule had a CLint scaled at 100 µM of 86.5 mL/min/kg. This molecule had a solubility in “physchem” of 1.1 µg/mL (≈ 2.49 µM).

For the molecule `O=S(=O)(CC1CS1)c1ccc(Oc2ccccc2)cc1` (stereo not given), the Activity in data set [2] amounted to 7.1 ×10⁻³ /s. Further, the pKi in [4] was 6.96. This molecule gave a half-life at 100 µM in data set [11] of 12 min. For the same molecule, the intrinsic metabolic clearance (CLint scaled) at 100 µM in data set [12] is 117 mL/min/kg.

In the case of `CCS(=O)(=O)Oc1ccc(S(=O)(=O)CC2CS2)cc1` (stereo not given), the Activity in data set [1] was determined as 0.6 ×10⁻³ /s; in [2], 1.8 ×10⁻³ /s; in [3], 1.6 ×10⁻³ /s. The pKi in data set [4] is 4.96; in [9], 7.05; on Matrilysin, 4.59; in [10], 4.92. The inhibition turned out to be 62% at Stromelysin-1 [5] and 7% in [6]. Besides, the half-life at 200 µM in data set [7] worked out at 31.8 min. In [8], the intrinsic metabolic clearance (CLint scaled) at 200 µM was 44.2 mL/min/kg. The amount in solution in “physchem” (solubility) came to 114 µg/mL (≈ 354 µM).

As a reminder, the pKi is −log10 of the Ki, conventionally taken in molar units. The term inhibition denotes the share of the control response that was lost under treatment. As a reminder, the half-life is the time in which the quantity being followed falls by half. Read a low half-life as rapid decline. The term CLint scaled denotes the capacity of the preparation to metabolise the compound, expressed as a volume cleared per time. Read a low CLint scaled as slow turnover. Broadly, the solubility is how much of the substance goes into solution per volume.
